Experimental findings from patent publication US20190209451A1, “SOLUBILIZING AGENTS FOR UV FILTERS IN COSMETIC FORMULATIONS” (BASF SE, priority 2016, published 2019) are described below.

The nature of this data set: Determination of the solubility of organic UV filters in levulynates used as solvents. The class given is physicochemical. The following applies: UV filter dissolved in the named levulynate as solvent; stirred seven days at 25° C.; UV/Vis-spectrometry. On the procedure: Afterwards 0.02 g (1%) of the respective substance are weighed and added to the solvent. The vial is placed into a thermostated waterbath, where the suspension/solution is stirred during seven days at 25° C. If the amount of substance put into the solvent is fully soluble, additional substance is added until precipitation can be observed. After seven days, the sample is centrifuged for 30 minutes at 13000 rpm. The supernatant is transferred into a small beaker. In case the sample is still turbid, it is filtered through a 0.2 μm non-steril Membrex 25 PET filter. Clear solutions must not be filtered. When a clear solution is obtained, the concentration of the substance is determined with UV/Vis-spectrometry. For this purpose the sample may be diluted with a suitable solvent or, in case of lower concentrations, may be measured as is. If the test solvent is water, further dilution is done with water. If the test solvent is volatile, the same solvent is taken for dilution. If the test solvent is a cosmetic emollient, dioxane is used for further dilution. In order to evaluate the concentration from the UV-spectroscopic results, the extinction coefficient is needed, which is determined independently with a solvent of similar polarity like that one used for dilution of the saturated solutions. The solubility can be calculated using the equation of the Lambert-Beer-Law: [formula] • c=concentration (mol/l) • E=extinction measured at λ max. • f=dilution factor • ε=extinction coefficient at λmax [I/(mol/cm)] • d=optical pathlength [cm] Due to spectra overlapping the solubility of some crystalline UV filters in liquid UV filters cannot be determined exactly by UV spectroscopy. In this case solubilities are determined via HPLC with reversed phase C-18 columns and UV-detectors.
In the case of `CCCCC(CC)COC(=O)CCC(C)=O` (centres unmarked) [2-Ethylhexyl-levulynate], the “Solubility of Bis-Ethylhexyloxyphenol Methoxyphenyl Triazine” value is reported as 6.5 w/% and the “Solubility of Diethylamino Hydroxybenzoyl Hexyl Benzoate” value amounted to 33.4 w/%.
Turning to `CCCCCCCCOC(=O)CCC(C)=O` [C8-levulynate, levulinic acid octyl ester], the “Solubility of Bis-Ethylhexyloxyphenol Methoxyphenyl Triazine” value is 10.4 w/%, the “Solubility of Diethylamino Hydroxybenzoyl Hexyl Benzoate” value is listed as 42.6 w/% and the “Solubility of Ethylhexyl Triazone” value is listed as 25.1 w/%.
For `CCCCCCCCCCOC(=O)CCC(C)=O` [C10-levulynate, levulinic acid decyl ester] the same measures were 9.1 w/%, 31.0 w/% and 21.0 w/%.
For `CCCCCCCCCCCCOC(=O)CCC(C)=O` [C12-Levulynate, levulinic acid dodecyl ester] the same measures were 3.0 w/%, 29.1 w/% and 11.7 w/%.
